Values joined by “and” are separate entries in the source; they are usually repeats but may differ in a detail not shown here. Equal entries are not always repeated.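 In this assay, cells in 96-well plates receive the compound at five concentrations for 48 hours. Endpoints are linearly interpolated between the surrounding concentrations. GI50: concentration for 50% inhibition of growth. TGI is the concentration that stops growth completely.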
Key:
Assay in all cases: NCI tumour cell line growth inhibition, 48 h
[1] = tested on: A549 NSCLC
[2] = tested on: ACHN renal
[3] = tested on: BT-549 breast
[4] = tested on: COLO 205 colon
[5] = tested on: DU-145 prostate
[6] = tested on: EKVX NSCLC
[7] = tested on: NCI-H226 lung
[8] = tested on: SF-539 CNS
[9] = tested on: UACC-257 melanoma
[10] = tested on: U251 CNS

Structure (SMILES)	GI50 [1] [µM]	TGI [1]	GI50 [2] [µM]	TGI [2]	GI50 [3] [µM]	TGI [3] [µM]	GI50 [4] [µM]	TGI [4]	GI50 [5] [µM]	TGI [5]	GI50 [6] [µM]	TGI [6] [µM]	GI50 [7] [µM]	TGI [7]	GI50 [8] [µM]	TGI [8]	GI50 [9] [µM]	TGI [9]	TGI [10]	GI50 [10] [µM]
CCOc1cccc(-c2nc(N)nc(Nc3ccccc3SSc3ccccc3Nc3nc(N)nc(-c4cccc(OCC)c4)n3)n2)c1	2.02	4.78 µM	2.14	5.8 µM	4.97	> 100	35.8	> 100 µM	7.5	> 100 µM	3.56	> 100	4.5	> 100 µM	9.2	> 100 µM	> 100	> 100 µM		
CS(=O)(=O)CC(=O)c1ccccc1		> 100 µM		> 100 µM		> 100		> 100 µM		> 100 µM		> 100		> 100 µM		> 100 µM		> 100 µM	> 100 µM	
NC(N)=N/N=C/c1ccc(-c2ccc(-c3cc(Cl)cc(Cl)c3)s2)cc1	2.15	4.99 µM	1.75	3.29 µM	2.37	7.02	1.49	3.88 µM	1.74	3.18 µM	1.84	4.03	2.33	5.99 µM	1.65	3.1 µM	1.94	4.22 µM	4.04 µM	1.89
CC1(C)[C@@H](OC(=O)CCC(=O)O)CC[C@]2(C)[C@H]3C(=O)C=C4[C@@H]5C[C@@](C)(C(=O)O)CC[C@]5(C)CC[C@@]4(C)[C@]3(C)CC[C@@H]12	61	130 µM	63	114 µM	51.1	83.3			58.3	142 µM	52.9	84.8			53.1	76.7 µM	66.2	91.4 µM	77.4 µM	53.2
O=c1ssc(Cl)c1Cl		> 10 µM		> 10 µM		> 10		4.32 µM		> 10 µM		> 10		> 10 µM		> 10 µM		> 10 µM	> 10 µM	
O=C(c1ccco1)c1c(C(F)(F)F)n([O-])c2ccc(Cl)cc2[n+]1=O	0.615	2.44 µM	0.137	0.482 µM	0.109	0.73	1.39	12.8 µM	0.341	1.44 µM	0.561	2.12	1.43	3.24 µM	0.37	0.924 µM	1.31	3.08 µM	1.66 µM	0.487
CC(C)(C)c1c2c(c(C(C)(C)C)c3c1OCN(Cc1ccccc1)C3)OCN(Cc1ccccc1)C2		39.8 µM		51.1 µM		39.4		26.6 µM		59.7 µM		41.5				31 µM		29.1 µM	29.6 µM	
Clc1cc(Cl)cc(N2N=C(c3cccc(Nc4ccncc4)c3)CC2c2ccc3c(c2)OCO3)c1 (centres undefined)			1.69	3.06 µM	1.7	3.3	1.87	3.88 µM	1.71	3.13 µM	1.61	3.2	1.91	4.3 µM	1.84	3.31 µM				
N#C[Se]CCCNS(=O)(=O)C1CC2C=CC1C2 (centres undefined)	0.601	2.63 µM	1.48	2.85 µM	0.192	0.388	2.3	5.83 µM	1.06	2.58 µM	0.491	1.84	0.267	0.674 µM	0.413	1.56 µM	0.648	3.09 µM	3.36 µM	1.08
CC(=O)OC1CC2C3CCC4C[C@@H](NC(=O)C=C(C)C)CC[C@]4(C)C3CC[C@]2(C)[C@H]1C(C)N(C)C (some centres undefined)	2.39	6.99 µM	2.73	7.36 µM	4.21	11.1	1.51	3.14 µM	3.41	14.1 µM	2.25	11.3	3.6	15 µM	1.27	2.62 µM	2.18	4.5 µM	5.79 µM	1.75
CN(C)c1ccc(/C=C/C2=[N+](C)c3ccccc3C2(C)C)cc1	2.64	14.9 µM	1.38	12.8 µM	0.467	12.6	0.505	2.07 µM	0.453	23.9 µM	0.508	20	1.57	26.1 µM	1.65	14 µM	0.658	6.17 µM	12.6 µM	0.353
O=c1oc2ccc(Br)cc2c(=O)n1-c1ccc(I)cc1F	0.717	22.9 µM	0.401	6.04 µM	0.341	1.39	3.97	15.1 µM	0.494	26.9 µM	0.594	5.73	0.66	3.36 µM	0.403	4.04 µM	0.328	1.91 µM	19.3 µM	0.375
COc1cc(C(=O)Nc2cc(OC)c3ccn(C)c3c2)cc2c1C[C@]1(C)CC[C@@H](O)C(C)(C)[C@H]1O2		33.7 µM	0.944	> 100 µM	0.558	30.3	1.4	6.41 µM	1.22	29 µM	1.87	> 100	7.69	> 100 µM	0.0632	2.22 µM	1.63	30.7 µM	15.3 µM	0.0978
Cc1ccc2c(c1)S(=O)(=O)c1ccc3ccccc3c1N2		> 100 µM		> 100 µM		> 100		> 100 µM		> 100 µM		> 100		> 100 µM		> 100 µM		> 100 µM	> 100 µM	
Oc1cc2ccccc2c(-c2c(O)c(O)cc3ccccc23)c1O	0.41	19.3 µM	0.571	21.1 µM	4.17	27.8	2.06	8.95 µM	2.29	15.4 µM	1.87	> 44.4	3.83	26.6 µM	1.68	5.46 µM	3.24	24.3 µM	20.3 µM	1.32
CC(=O)Oc1ccc(/C(=C(\C)c2ccc(Cl)cc2)c2ccc(OCCN3CCCCC3)cc2)cc1	1.94	4.15 µM	2.13	4.03 µM	1.83	3.58	1.79	3.5 µM	1.92	3.83 µM	2.15	6.32	6.39	22.9 µM	1.84	3.57 µM	2.05	4.11 µM	3.27 µM	1.66
CCCCCCCCCCCCCCCCC(=O)O.CCCCCCCCCCCCCCCCCC(=O)O.CCCCCCCCCCCCCCCCCC(=O)O.CCCCCCCCCCCCCCCCCC(=O)O.CCCCCCCCCCCCCCCCCC(=O)O.CO[CH-]OC12COC1CC(O)C1(C)C(O)C(OC(C)O)C3=C(C)C(OC(=O)C(O)C([NH-])c4ccccc4)CC(O)(C(OC(=O)c4ccccc4)C21)C3(C)C.[Cu+].[Zn].[Zn].[Zn].[Zn].[Zn] (centres undefined)	0.00818	> 22.3 µM	0.272	> 25 µM	0.00947	3.95	0.00844	> 25 µM	0.00871	1.63 µM	0.112	9.22	0.277	8.05 µM	0.00598	0.0506 µM	3.91	> 25 µM	4.09 µM	0.00851
CN(Cc1cc(Cl)cc(Cl)c1O)Cc1c(O)ccc2ccccc12		62.3 µM		31 µM		32		32 µM		46.2 µM		46.4		37.7 µM		38.5 µM		34.6 µM	30.4 µM	
Cc1c(O)c2c(c(O)c1Br)C(=O)C=CC2=O	4.14	4.47 µM and 29.4 µM	0.489	2.2 µM and 1.83 µM		1.3	0.334	0.428 µM and 1.45 µM	1.82	2.85 µM and 3.24 µM		5.21	5.44	5.77 µM and 18.7 µM	1.68	1.66 µM and 3.1 µM	0.924	2.52 µM and 2.22 µM	3.09 µM and 3.99 µM	
COc1cc2c(cc1Nc1nc(Nc3cccc(F)c3C(N)=O)c3cc[nH]c3n1)N(C(=O)CN1CCN(C(C)C)CC1)CC2	3.48	7.19 µM	4.59	10.2 µM	3.95	7.54	0.666	3.65 µM	3.77	7.28 µM	3.08	7.13	3.41	7.01 µM	3.74	7.7 µM	2.98	6.3 µM	7.09 µM	3.68
COc1cc([C@@H]2C[C@H]2c2cc(SC)n[nH]2)cc(OC)c1OC	25.9	> 100 µM	30.3	> 100 µM	16.2	42	20.5	70 µM	17.7	> 100 µM	14.9	40.2	16.9	70.4 µM			17.7	50.7 µM	> 100 µM	79.3
COc1ccc(-n2ccnc2-c2cc(OC)c(OC)c(OC)c2)cc1	6.57	> 100 µM			5.03	> 100	1.33	5.74 µM	6.66	> 100 µM	34	> 100	24	> 100 µM	3.27	29.1 µM	6.64	> 100 µM	> 100 µM	3.98
COc1ccc(C2=NN(C(=O)c3cc(OC)c(OC)c(OC)c3)C(c3ccc(N(C)C)cc3)C2)cc1 (centres undefined)	1.12	> 100 µM	0.622	> 100 µM	1.58	> 100			1.74	> 23.7 µM	1.43	> 100	1.28	> 100 µM	0.294	1.52 µM	97.6	> 100 µM	> 100 µM	0.473
COc1ccc(C2C=C(c3ccc4c(c3)OCO4)Oc3c2c(=O)oc2ccccc32)cc1OC (centres undefined)		> 100 µM		> 100 µM		> 100		> 100 µM		> 100 µM		> 100		9.6 µM		1.81 µM			> 100 µM	
Cc1ccc(Cl)c(Nc2ccccc2C(=O)O)c1Cl	30.4	> 100 µM	32.7	> 100 µM	21.7	60.1	22.2	43 µM	28.9	71.8 µM			28	82.4 µM	23.6	51.3 µM	27.4	> 100 µM	82.4 µM	26
Cc1cc(C(C)(C)C)cc(CNC2CCCCC2)c1O		33.8 µM		31 µM		30		31.5 µM		37.6 µM		31.4				33 µM		28.4 µM	29.9 µM	
CC(=O)c1cc(C(=O)c2ccc3c(c2)Sc2ccccc2N3)c2cc(C)ccn12	0.0648	> 100 µM	0.0816	> 100 µM	0.251	> 100	0.0598	0.346 µM	0.188	> 100 µM	0.0873	> 100	3.91	> 100 µM	0.0581	0.826 µM			> 100 µM	0.138
Cn1c(/C=C/[N+](=O)[O-])cc2ccccc21	2.68	7.83 µM	3.42	13.2 µM	1.88	3.77	1.88	3.69 µM	1.65	3.21 µM	15.3	> 100	4.23	21 µM			2.11	6.86 µM	3.75 µM	1.73
